Data from ChEMBL document CHEMBL4229370, “Discovery of novel quinazolinone derivatives as high potent and selective PI3Kδ and PI3Kδ/γ inhibitors” (Eur J Med Chem, 2018).
pIC50: −log10 of the molar value. Each block holds one compound with its values, some of them ahead of it.

How the values were obtained:
[1] = target: T1, Phosphatidylinositol 4,5-bisphosphate 3-kinase catalytic subunit delta isoform (Homo sapiens, UniProt O00329); test: Inhibition of PI3Kdelta (unknown origin) using Biotin-S11S12 as substrate after 120 mins in presence of ATP by ADPGlo luminescence assay
T1 sequence (O00329 whole entry): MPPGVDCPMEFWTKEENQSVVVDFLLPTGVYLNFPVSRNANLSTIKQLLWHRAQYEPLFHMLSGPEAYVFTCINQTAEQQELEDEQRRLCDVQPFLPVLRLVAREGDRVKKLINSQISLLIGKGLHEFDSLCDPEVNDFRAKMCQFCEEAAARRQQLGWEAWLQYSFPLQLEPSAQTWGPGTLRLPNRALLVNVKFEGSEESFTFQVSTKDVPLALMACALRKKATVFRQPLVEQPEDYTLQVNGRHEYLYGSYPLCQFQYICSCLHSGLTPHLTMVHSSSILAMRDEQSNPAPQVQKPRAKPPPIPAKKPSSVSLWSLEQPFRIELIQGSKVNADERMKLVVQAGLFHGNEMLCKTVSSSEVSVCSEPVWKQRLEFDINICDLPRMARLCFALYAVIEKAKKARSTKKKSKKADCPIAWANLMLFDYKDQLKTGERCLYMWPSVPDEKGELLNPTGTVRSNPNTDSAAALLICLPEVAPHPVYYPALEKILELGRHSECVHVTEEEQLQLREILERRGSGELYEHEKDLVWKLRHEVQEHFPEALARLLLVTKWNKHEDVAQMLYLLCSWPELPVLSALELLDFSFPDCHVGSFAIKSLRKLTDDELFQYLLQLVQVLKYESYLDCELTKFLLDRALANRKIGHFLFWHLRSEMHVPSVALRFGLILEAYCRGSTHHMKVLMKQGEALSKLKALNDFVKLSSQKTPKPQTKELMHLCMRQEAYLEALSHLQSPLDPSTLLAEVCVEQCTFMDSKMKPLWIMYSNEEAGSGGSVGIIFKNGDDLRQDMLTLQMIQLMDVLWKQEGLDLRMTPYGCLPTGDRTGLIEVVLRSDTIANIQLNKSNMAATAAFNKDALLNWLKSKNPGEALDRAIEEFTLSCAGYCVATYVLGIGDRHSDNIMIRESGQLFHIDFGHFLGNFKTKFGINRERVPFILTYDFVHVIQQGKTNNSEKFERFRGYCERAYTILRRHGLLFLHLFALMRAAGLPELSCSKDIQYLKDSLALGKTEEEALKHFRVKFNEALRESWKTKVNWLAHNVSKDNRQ

[2] = target: T2, Phosphatidylinositol 4,5-bisphosphate 3-kinase catalytic subunit delta isoform (Homo sapiens) (UniProt O00329); test: Inhibition of PI3Kdelta (unknown origin) at 1 uM using Biotin-S11S12 as substrate after 120 mins in presence of ATP by ADPGlo luminescence assay
T2 sequence (whole entry): T1 sequence (O00329 whole entry)

SU-DHL-6 = test: Growth inhibition of human SU-DHL6 cells by CellTiter-Glo assay; assay type: functional
[3] = AUClast in Sprague-Dawley rat at 10 mg/kg, po; assay type: ADME, organism-based; design: dose 10 mg/kg, time 0 - last, route oral; conditions: in vivo
[4] = Clearance in Sprague-Dawley rat at 1 mg/kg, iv; assay type: ADME, organism-based; conditions: in vivo
[5] = target: Phosphatidylinositol 4,5-bisphosphate 3-kinase catalytic subunit alpha isoform (Homo sapiens, UniProt P42336); test: Inhibition of PI3Kalpha (unknown origin) using Biotin-S11S12 as substrate after 60 mins in presence of ATP by Kinase Glo luminescence assay
Sequence of Phosphatidylinositol 4,5-bisphosphate 3-kinase catalytic subunit alpha isoform (P42336 whole entry, canonical isoform): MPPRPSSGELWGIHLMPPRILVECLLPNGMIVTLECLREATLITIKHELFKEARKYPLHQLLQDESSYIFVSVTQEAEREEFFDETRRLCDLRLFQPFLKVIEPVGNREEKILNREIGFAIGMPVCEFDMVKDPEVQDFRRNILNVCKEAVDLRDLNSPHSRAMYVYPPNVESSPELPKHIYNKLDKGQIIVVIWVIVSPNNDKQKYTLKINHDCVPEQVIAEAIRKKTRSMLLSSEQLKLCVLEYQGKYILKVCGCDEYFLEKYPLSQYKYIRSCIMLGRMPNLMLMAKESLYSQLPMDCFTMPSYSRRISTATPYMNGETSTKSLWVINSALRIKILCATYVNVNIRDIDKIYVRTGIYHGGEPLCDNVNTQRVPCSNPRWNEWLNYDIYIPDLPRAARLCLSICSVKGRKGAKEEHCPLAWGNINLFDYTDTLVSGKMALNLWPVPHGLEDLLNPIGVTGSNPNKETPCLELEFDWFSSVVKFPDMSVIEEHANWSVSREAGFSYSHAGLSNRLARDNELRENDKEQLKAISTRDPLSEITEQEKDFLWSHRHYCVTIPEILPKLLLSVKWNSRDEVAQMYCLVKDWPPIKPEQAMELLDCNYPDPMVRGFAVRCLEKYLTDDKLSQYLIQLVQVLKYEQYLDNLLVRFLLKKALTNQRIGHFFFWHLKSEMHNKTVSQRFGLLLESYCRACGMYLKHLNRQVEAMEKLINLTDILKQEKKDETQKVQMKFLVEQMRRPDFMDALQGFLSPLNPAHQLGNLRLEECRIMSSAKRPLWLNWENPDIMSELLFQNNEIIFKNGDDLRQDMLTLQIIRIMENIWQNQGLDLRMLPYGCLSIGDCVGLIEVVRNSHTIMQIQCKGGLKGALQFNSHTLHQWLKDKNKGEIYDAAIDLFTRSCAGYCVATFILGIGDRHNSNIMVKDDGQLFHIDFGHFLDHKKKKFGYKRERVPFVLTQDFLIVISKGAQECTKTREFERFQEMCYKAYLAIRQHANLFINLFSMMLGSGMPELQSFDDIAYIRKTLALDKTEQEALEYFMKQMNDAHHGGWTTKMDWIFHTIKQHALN

[6] = target: Phosphatidylinositol 4,5-bisphosphate 3-kinase catalytic subunit beta isoform (Homo sapiens, UniProt P42338); test: Inhibition of PI3Kbeta (unknown origin) using Biotin-S11S12 as substrate after 60 mins in presence of ATP by ADPGlo luminescence assay
Sequence of Phosphatidylinositol 4,5-bisphosphate 3-kinase catalytic subunit beta isoform (P42338 whole entry, canonical isoform): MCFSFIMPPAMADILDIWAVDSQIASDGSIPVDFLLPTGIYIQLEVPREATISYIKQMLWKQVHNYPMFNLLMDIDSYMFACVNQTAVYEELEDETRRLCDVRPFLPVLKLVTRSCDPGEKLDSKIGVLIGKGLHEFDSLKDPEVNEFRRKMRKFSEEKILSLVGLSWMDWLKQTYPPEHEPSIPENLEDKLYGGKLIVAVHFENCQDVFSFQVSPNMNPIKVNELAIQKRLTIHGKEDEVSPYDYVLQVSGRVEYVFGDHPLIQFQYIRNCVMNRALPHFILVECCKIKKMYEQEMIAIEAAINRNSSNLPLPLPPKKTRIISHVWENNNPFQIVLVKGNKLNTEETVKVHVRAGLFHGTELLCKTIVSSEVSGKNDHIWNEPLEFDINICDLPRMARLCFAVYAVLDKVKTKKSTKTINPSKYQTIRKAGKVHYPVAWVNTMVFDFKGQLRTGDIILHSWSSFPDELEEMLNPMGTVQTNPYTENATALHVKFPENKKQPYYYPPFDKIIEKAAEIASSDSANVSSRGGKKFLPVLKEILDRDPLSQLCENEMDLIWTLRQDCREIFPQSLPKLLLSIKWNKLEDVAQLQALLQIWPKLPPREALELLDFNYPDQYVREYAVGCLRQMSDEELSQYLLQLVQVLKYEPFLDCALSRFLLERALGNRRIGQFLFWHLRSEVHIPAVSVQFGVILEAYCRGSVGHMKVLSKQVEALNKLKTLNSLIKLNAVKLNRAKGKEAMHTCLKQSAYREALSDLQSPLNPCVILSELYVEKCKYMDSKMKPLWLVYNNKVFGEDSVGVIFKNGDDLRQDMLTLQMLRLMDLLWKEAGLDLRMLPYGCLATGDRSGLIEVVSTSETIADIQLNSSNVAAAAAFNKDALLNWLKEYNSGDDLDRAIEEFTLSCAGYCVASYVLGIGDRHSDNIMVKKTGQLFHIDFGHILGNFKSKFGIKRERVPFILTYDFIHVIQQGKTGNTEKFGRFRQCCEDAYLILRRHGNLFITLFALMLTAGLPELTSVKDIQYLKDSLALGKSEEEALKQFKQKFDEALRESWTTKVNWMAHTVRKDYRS

[7] = target: Phosphatidylinositol 4,5-bisphosphate 3-kinase catalytic subunit gamma isoform (Homo sapiens, UniProt P48736); test: Inhibition of PI3Kgamma (unknown origin) using Biotin-S11S12 as substrate after 60 mins in presence of ATP by ADPGlo luminescence assay
Sequence of Phosphatidylinositol 4,5-bisphosphate 3-kinase catalytic subunit gamma isoform (P48736 whole entry, canonical isoform): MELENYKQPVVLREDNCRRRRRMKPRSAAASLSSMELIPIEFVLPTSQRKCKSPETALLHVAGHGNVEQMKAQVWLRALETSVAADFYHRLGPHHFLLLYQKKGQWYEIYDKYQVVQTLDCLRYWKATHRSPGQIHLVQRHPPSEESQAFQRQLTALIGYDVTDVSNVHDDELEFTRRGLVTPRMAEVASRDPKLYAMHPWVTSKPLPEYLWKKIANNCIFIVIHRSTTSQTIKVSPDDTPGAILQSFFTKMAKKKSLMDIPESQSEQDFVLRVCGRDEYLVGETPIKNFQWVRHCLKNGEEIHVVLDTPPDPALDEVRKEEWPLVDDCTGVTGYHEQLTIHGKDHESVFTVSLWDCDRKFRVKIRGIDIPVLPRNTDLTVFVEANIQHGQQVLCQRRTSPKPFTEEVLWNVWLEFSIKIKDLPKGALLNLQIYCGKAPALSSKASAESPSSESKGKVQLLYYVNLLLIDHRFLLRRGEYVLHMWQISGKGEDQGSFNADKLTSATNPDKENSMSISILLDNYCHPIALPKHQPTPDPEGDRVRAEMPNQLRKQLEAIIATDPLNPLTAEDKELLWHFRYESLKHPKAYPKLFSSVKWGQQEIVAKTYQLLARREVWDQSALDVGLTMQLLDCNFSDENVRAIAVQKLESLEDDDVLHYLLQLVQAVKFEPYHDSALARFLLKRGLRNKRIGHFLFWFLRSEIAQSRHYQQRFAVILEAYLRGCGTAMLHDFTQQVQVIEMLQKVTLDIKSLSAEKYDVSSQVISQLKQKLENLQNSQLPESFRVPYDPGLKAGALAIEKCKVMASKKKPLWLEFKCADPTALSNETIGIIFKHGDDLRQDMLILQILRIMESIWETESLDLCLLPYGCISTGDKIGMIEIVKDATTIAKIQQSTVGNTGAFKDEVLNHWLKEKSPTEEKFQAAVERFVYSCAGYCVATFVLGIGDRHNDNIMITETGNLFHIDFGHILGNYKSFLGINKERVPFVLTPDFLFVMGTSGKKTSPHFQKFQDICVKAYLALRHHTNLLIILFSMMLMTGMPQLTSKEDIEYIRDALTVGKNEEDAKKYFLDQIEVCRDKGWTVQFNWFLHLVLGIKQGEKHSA

Homo sapiens [8] = organism: Homo sapiens; test: Selectivity index, ratio of IC50 for PI3Kalpha (unknown origin) to IC50 for PI3Kdelta (unknown origin)
Homo sapiens [9] = organism: Homo sapiens; test: Selectivity index, ratio of IC50 for PI3Kbeta (unknown origin) to IC50 for PI3Kdelta (unknown origin)
Homo sapiens [10] = organism: Homo sapiens; test: Selectivity index, ratio of IC50 for PI3Kgamma (unknown origin) to IC50 for PI3Kdelta (unknown origin)
[11] = AUClast in Sprague-Dawley rat at 1 mg/kg, iv; assay type: ADME, organism-based; design: dose 1 mg/kg, time 0 - last, route intravenous; conditions: in vivo
[12] = AUC (0 to infinity) in Sprague-Dawley rat at 1 mg/kg, iv; assay type: ADME, organism-based; design: dose 1 mg/kg, time infinity, route intravenous; conditions: in vivo
[13] = Volume of distribution at steady state in Sprague-Dawley rat at 1 mg/kg, iv; assay type: ADME, organism-based; conditions: in vivo, read-out: Vdss
[14] = Terminal half-life in Sprague-Dawley rat at 1 mg/kg, iv; assay type: ADME, organism-based; conditions: in vivo, read-out: beta t1/2 (converted)
[15] = AUC (0 to infinity) in Sprague-Dawley rat at 10 mg/kg, po; assay type: ADME, organism-based; design: dose 10 mg/kg, time infinity, route oral; conditions: in vivo
[16] = Terminal half-life in Sprague-Dawley rat at 10 mg/kg, po; assay type: ADME, organism-based; conditions: in vivo, read-out: beta t1/2 (converted)
[17] = Oral bioavailability in Sprague-Dawley rat at 10 mg/kg; assay type: ADME, organism-based; conditions: in vivo
[18] = MRT (infinity) in Sprague-Dawley rat at 1 mg/kg, iv; assay type: ADME, organism-based; conditions: in vivo
[19] = Tmax in Sprague-Dawley rat at 10 mg/kg, po; assay type: ADME, organism-based; conditions: in vivo
[20] = Cmax in Sprague-Dawley rat at 10 mg/kg, po; assay type: ADME, organism-based; design: dose 10 mg/kg, route oral; conditions: in vivo
[21] = Plasma concentration in Sprague-Dawley rat at 1 mg/kg, iv after 0.083 hrs; assay type: ADME, organism-based
[22] = Plasma concentration in Sprague-Dawley rat at 1 mg/kg, iv after 0.25 hrs; assay type: ADME, organism-based
[23] = Plasma concentration in Sprague-Dawley rat at 1 mg/kg, iv after 0.5 hrs; assay type: ADME, organism-based
[24] = Plasma concentration in Sprague-Dawley rat at 1 mg/kg, iv after 1 hrs; assay type: ADME, organism-based
[25] = Plasma concentration in Sprague-Dawley rat at 1 mg/kg, iv after 2 hrs; assay type: ADME, organism-based
[26] = Plasma concentration in Sprague-Dawley rat at 1 mg/kg, iv after 4 hrs; assay type: ADME, organism-based
[27] = Plasma concentration in Sprague-Dawley rat at 1 mg/kg, iv after 8 hrs; assay type: ADME, organism-based
[28] = Plasma concentration in Sprague-Dawley rat at 1 mg/kg, iv after 24 hrs; assay type: ADME, organism-based; conditions: in vivo, BLD = below limit of detection
[29] = Plasma concentration in Sprague-Dawley rat at 10 mg/kg, po after 0.083 hrs; assay type: ADME, organism-based
[30] = Plasma concentration in Sprague-Dawley rat at 10 mg/kg, po after 0.25 hrs; assay type: ADME, organism-based
[31] = Plasma concentration in Sprague-Dawley rat at 10 mg/kg, po after 0.5 hrs; assay type: ADME, organism-based
[32] = Plasma concentration in Sprague-Dawley rat at 10 mg/kg, po after 1 hrs; assay type: ADME, organism-based
[33] = Plasma concentration in Sprague-Dawley rat at 10 mg/kg, po after 2 hrs; assay type: ADME, organism-based
[34] = Plasma concentration in Sprague-Dawley rat at 10 mg/kg, po after 4 hrs; assay type: ADME, organism-based
[35] = Plasma concentration in Sprague-Dawley rat at 10 mg/kg, po after 8 hrs; assay type: ADME, organism-based
[36] = Plasma concentration in Sprague-Dawley rat at 10 mg/kg, po after 24 hrs; assay type: ADME, organism-based; conditions: in vivo, BLD = below limit of detection

SMILES: Cc1cccc(C)c1-n1c(Cn2nc(-c3cnc4ccccc4c3)c3c(N)ncnc32)nc2cccc(F)c2c1=O
pIC50 [1]: 7.09 | inhibition [2]: 92%

SMILES: Cc1ccccc1-n1c(Cn2nc(-c3ccc4c(c3)OCO4)c3c(N)ncnc32)nc2cccc(F)c2c1=O
pIC50 [1]: 6.97 | inhibition [2]: 89.6%

SMILES: Cc1cccc(C)c1-n1c(Cn2nc(-c3cccc(OC(F)(F)F)c3)c3c(N)ncnc32)nc2cccc(F)c2c1=O
inhibition [2]: 29.6%

SMILES: CC[C@H](Nc1ncnc2[nH]cnc12)c1nc2cccc(F)c2c(=O)n1-c1ccccc1 [IDELALISIB]
inhibition [2]: 91.9% | GI50 (SU-DHL-6): 42 nM

SMILES: Cc1cccc(C)c1-n1c(Cn2nc(-c3ccc4c(c3)OCO4)c3c(N)ncnc32)nc2cccc(F)c2c1=O
pIC50 [1]: 7.08 | inhibition [2]: 89.1%

SMILES: COc1ccc(-c2nn(Cc3nc4cccc(F)c4c(=O)n3-c3c(C)cccc3C)c3ncnc(N)c23)cn1
pIC50 [1]: 7.39 | inhibition [2]: 94.7%

SMILES: Cc1ccccc1-n1c(Cn2nc(-c3cccc(OC(F)(F)F)c3)c3c(N)ncnc32)nc2cccc(F)c2c1=O
inhibition [2]: 70.8%

SMILES: Cc1ccccc1-n1c(Cn2nc(-c3ccc4cc(O)ccc4c3)c3c(N)ncnc32)nc2cccc(F)c2c1=O
pIC50 [1]: 6.64 | inhibition [2]: 73%

SMILES: Cc1ccccc1-n1c(Cn2nc(-c3cnc4ccccc4c3)c3c(N)ncnc32)nc2cccc(F)c2c1=O
pIC50 [1]: 7.07 | inhibition [2]: 90%

SMILES: Cc1cccc(C)c1-n1c(Cn2nc(-c3ccc4cc(O)ccc4c3)c3c(N)ncnc32)nc2cccc(F)c2c1=O
pIC50 [1]: 6.38 | inhibition [2]: 77.3%

Now from value to compound:

pIC50 [1]: 7.59 | inhibition [2]: 90.8%
SMILES: COc1ccc(-c2nn(Cc3nc4cccc(F)c4c(=O)n3-c3ccccc3C)c3ncnc(N)c23)cc1OC

AUC(0-t) [3]: 808 ng·h/mL | clearance [4]: 36 mL/min/kg | pIC50 [1]: 8.07 | inhibition [2]: 96.8% | pIC50 [5]: 4.50 | pIC50 [6]: 5.47 | pIC50 [7]: 6.44 | Ratio IC50 (Homo sapiens [8]): 3640 | Ratio IC50 (Homo sapiens [9]): 392 | Ratio IC50 (Homo sapiens [10]): 42 | GI50 (SU-DHL-6): 149 nM | AUC(0-t) [11]: 471 ng·h/mL | AUC(0-inf) [12]: 473 ng·h/mL | Vd [13]: 1.11 L/kg | half-life [14]: 50.4 min | AUC(0-inf) [15]: 820 ng·h/mL | half-life [16]: 78.6 min | bioavailability [17]: 17.3% | MRT inf [18]: 30.6 min | Tmax [19]: 50 min | Cmax [20]: 387 ng/mL | concentration at 0.083 h [21]: 1020 ng/mL | concentration at 0.25 h [22]: 541 ng/mL | concentration at 0.5 h [23]: 250 ng/mL | concentration at 1 h [24]: 64.3 ng/mL | concentration at 2 h [25]: 13.1 ng/mL | concentration at 4 h [26]: 2.58 ng/mL | concentration at 8 h [27]: 1.83 ng/mL | Cp [28]: Bld | concentration at 0.083 h [29]: 198 ng/mL | concentration at 0.25 h [30]: 343 ng/mL | concentration at 0.5 h [31]: 379 ng/mL | concentration at 1 h [32]: 318 ng/mL | concentration at 2 h [33]: 192 ng/mL | concentration at 4 h [34]: 9.86 ng/mL | concentration at 8 h [35]: 6.5 ng/mL | Cp [36]: Bld
SMILES: Cc1cccc(C)c1-n1c(Cn2nc(-c3ccc4[nH]ccc4c3)c3c(N)ncnc32)nc2cccc(F)c2c1=O

AUC(0-t) [3]: 3530 ng·h/mL | clearance [4]: 16.5 mL/min/kg | pIC50 [1]: 8.08 | inhibition [2]: 96.8% | pIC50 [5]: 4.93 | pIC50 [6]: 5.16 | pIC50 [7]: 7.21 | Ratio IC50 (Homo sapiens [8]): 1410 | Ratio IC50 (Homo sapiens [9]): 828 | Ratio IC50 (Homo sapiens [10]): 7 | GI50 (SU-DHL-6): 222 nM | AUC(0-t) [11]: 1010 ng·h/mL | AUC(0-inf) [12]: 1020 ng·h/mL | Vd [13]: 0.45 L/kg | half-life [14]: 37.2 min | AUC(0-inf) [15]: 3550 ng·h/mL | half-life [16]: 101 min | bioavailability [17]: 34.9% | MRT inf [18]: 30.6 min | Tmax [19]: 50 min | Cmax [20]: 387 ng/mL | concentration at 0.083 h [21]: 1020 ng/mL | concentration at 0.25 h [22]: 541 ng/mL | concentration at 0.5 h [23]: 250 ng/mL | concentration at 1 h [24]: 64.3 ng/mL | concentration at 2 h [25]: 13.1 ng/mL | concentration at 4 h [26]: 2.58 ng/mL | concentration at 8 h [27]: 1.83 ng/mL | Cp [28]: Bld | concentration at 0.083 h [29]: 198 ng/mL | concentration at 0.25 h [30]: 343 ng/mL | concentration at 0.5 h [31]: 379 ng/mL | concentration at 1 h [32]: 318 ng/mL | concentration at 2 h [33]: 192 ng/mL | concentration at 4 h [34]: 9.86 ng/mL | concentration at 8 h [35]: 6.5 ng/mL | Cp [36]: Bld
SMILES: COc1ccc(-c2nn(Cc3nc4cccc(F)c4c(=O)n3-c3c(C)cccc3C)c3ncnc(N)c23)cc1OC

pIC50 [1]: 7.51 | inhibition [2]: 92.7%
SMILES: COc1ccc(-c2nn(Cc3nc4cccc(F)c4c(=O)n3-c3ccccc3C)c3ncnc(N)c23)cn1

pIC50 [1]: 7.80 | inhibition [2]: 94.7%
SMILES: Cc1ccccc1-n1c(Cn2nc(-c3ccc4[nH]ccc4c3)c3c(N)ncnc32)nc2cccc(F)c2c1=O
